Test results reported in patent EP0782989A1, “INDOLE DERIVATIVES” (KYOWA HAKKO KOGYO CO., LTD., priority 1995, dated 1997).
Structures can show the parent of a compound that is named as a salt.

How the values were obtained:
[1] = tested on: ovariectomized rats; experiment: Inhibitory effect on the increase of urinary hydroxyproline excretion by ovariectomy; type: in vivo, SD strain rats; settings: Rattus norvegicus, po, 336 h; 10 mg/kg orally once a day for two weeks after ovariectomy; hydroxyproline/creatinine molar ratio in 24 hours urine; read-out: Inhibition rate of increase of the amount of urinary hydroxyproline excretion
Method: The inhibitory effect of the compounds of the present application on bone resorption was also determined by their inhibitory effect on the excretion of urinary hydroxyproline which is elevated by ovariectomy of the animals tested, according to the report of Kalu et al. [Bone and Mineral., 14, 175 (1991)].
Test Example 2: Inhibitory effect on the increase of urinary hydroxyproline excretion by ovariectomy
12-weeks-old female SD strain rats (Japan Clea Co., Ltd.) were acclimated for 1 week during which they were given tap water and a standard diet (F2; Funabashi Farmas) ad libitum. The experiment was carried out using the rats weighing 270-310 g. After the animals were subjected to sham operation or bilateral ovariectomy, they were allowed free access to water passed through ion exchange resin instead of tap water, and were housed in individual cages. The test compound (10 mg/kg) was suspended in 0.3% Tween or 0.5% methylcellulose, and the obtained suspension was orally administered to the ovariectomized rats once a day for two weeks starting from the day following ovariectomy (0.5 ml/100 g body weight). 0.3% Tween or 0.5% methylcellulose was similarly administered to sham-operated rats and ovariectomized control rats. After the final administration, the rats were placed in individual metabolic cages and fasted during 24 hours, and urine was collected. The volume of the collected urine was measured and the urine was centrifuged at 3,000 rpm for 15 min at 4°C. The concentration of hydroxyproline in the supernatant was measured by the method of Ikeda et al. [Ann. […] P. H., 36, 277-282 (1985)] and the concentration of creatinine in the supernatant was measured with creatinine test WAKO (Wako Pure Chem.) The amount of urinary hydroxyproline excretion was expressed by the molar ratio of the amount of hydroxyproline to the amount of creatinine. The rate of inhibition on increase of the amount of urinary hydroxyproline excretion in ovariectomized rats treated with the test compound compared to that of the control group was calculated using the following equation. Inhibition rate (%) = [(P1 - P2)/(P1 - P3)] x 100 [formula] • P1 : The amount of urinary hydroxyproline excretion in ovariectomized rats treated with 0.3% Tween (µmol/mmol). • P2 : The amount of urinary hydroxyproline excretion in ovariectomized rats treated with the test compound (µmol/mmol). • P3 : The amount of urinary hydroxyproline in sham-operated rats treated with 0.3% Tween (µmol/mmol).

[2] = tested on: PTH enhanced bone; experiment: Inhibitory effect on bone absorption (calcium liberation from PTH enhanced cultured calvaria); type: cell-based, newborn dd mouse; settings: Mus musculus; calvaria culture with PTH 1 x 10^-8M, 96 hours, total calcium in the culture; test compound 3 x 10^-6M, 1 x 10^-5M, 3 x 10^-5M
Method: Test Example 1: Inhibitory effect on bone absorption The calvaria was excised from a newborn dd mouse (5 to 6 days old) under sterile conditions. The calvaria was washed with a modified Dulbecco phosphate buffer physiological saline solution containing neither calcium nor magnesium (a product of Gibco Oriental), and divided into two parts along the center suture. A half of the calvaria was cultivated in a modified Dulbecco Eagle medium (1.5 ml) (a product of Gibco Oriental) containing 2.5% fetal calf serum and 15% equine serum which had been inactivated by heating at 56°C for 20 minutes. The test compound was dissolved in dimethyl sulfoxide and 10 μl of the resulting solution was added to the culture medium to give the final concentrations of 3 x 10^-6M, 1 x 10^-5M, and 3 x 10^-5M. PTH (parathyroid hormone) was dissolved in a 0.15 M saline solution (pH 3) and 3 μl of the resulting solution was added to the culture medium to give the final concentration of 1 x 10^-8M. The culturing was carried out under the condition of 95% air and 5% carbon dioxide and at a temperature of 37°C for 96 hours. At 48 hours after the start of the culturing, the culture medium was renewed and the test compound and PTH treated as defined above were added thereto. For examining the effect of the test compound on calcium liberation (bone absorption) from the PTH enhanced bone, a control group, a group using PTH (1 x 10^-8M), and a group using both the test compound (3 […]) and PTH were prepared. The amount of the bone absorption was determined by measuring the amount of calcium accumulated in the culture as collected after 96 hours of culturing. The total calcium concentration in the culture was measured with Calcium C Test Wako. The inhibition rate was calculated using the following equation and the result was shown in terms of 50% inhibitory concentration (IC50). Inhibition of bone absorption from PTH enhanced bone Inhibition rate (%) = [(CP - CD )/(CP - C0 )] x 100 [formula] • C0 : The total calcium concentration in the culture containing neither the test compound nor PTH. • CP : The total calcium concentration in the culture treated with only PTH. • CD : The total calcium concentration in the culture treated with both the test compound and PTH.

[3] = tested on: ovariectomized rats; experiment: Inhibitory effect on decrease of bone density by ovariectomy (tibia, DEXA); type: in vivo, SD strain rats; settings: 10 mg/kg orally once a day for 6 weeks
Method: Test Example 3: Inhibitory effect on decrease of bone density by ovariectomy
The experiment was carried out using 13-weeks-old female SD strain rats (Japan Crea Co. Ltd.) The animals were subjected to sham operation or bilateral ovariectomy under Nembutal anesthesia. The test compound (10 mg/kg) was dissolved or suspended in 0.5% methylcellulose (Shin-Etsu Chemical Co., Ltd.) and administered orally once a day from the first day after the operation for 6 weeks. For the sham-operated group and the ovariectomized control group, 0.5% methylcellulose (Shin-Etsu Chemical Co., Ltd.) was administered orally. The rat was slaughtered by femoral artery bleeding, the right hindlimb was ablated, and then the bone mineral content (BMC) and bone density (BD) of the tibia was measured according to a DEXA (DXA) method [Japan Clinic, 52 (9), 2329-2334 (1994)] using bone mineral measuring apparatus DCS-600 (Aloka Co., Ltd.). Tibial BMC and BD in the sham-operated, ovariectomized control, and test compound-treated ovariectomized group are shown in Table 4.

| IC50 [2] [µM] | Compound | inhibition in vivo at 10 mg/kg [1] [%] | BD (mg/cm^2) ([3]; tibia bone density) | BMC ([3]; tibia bone mineral content) [mg] |
| --- | --- | --- | --- | --- |
|  | CCOC(=O)c1c(C(c2ccc(C)cc2)c2ccc(C)cc2)c2ccccc2n1CCN1CCCCC1 [Compound 98, Ethyl 3-[bis(4-methylphenyl)methyl]-1-(2-piperidinoethyl)indole-2-carboxylate] | 47 |  |  |
| 10.9 | CN(C)CCn1c(C(=O)N2CCN(c3ccccc3)CC2)c(C(c2ccccc2)c2ccccc2)c2ccccc21 [Compound 14, 1-(2-Dimethylaminoethyl)-3-(diphenylmethyl)-2-(4-phenylpiperazinylcarbonyl)indole] |  |  |  |
| 10.8 | CC(C)NC(=O)c1c(C(c2ccccc2)c2ccc(O)cc2)c2ccccc2n1CCN(C)C (centres unmarked) [Compound 119, N-Isopropyl-1-(2-dimethylaminoethyl)-3-(4-hydroxybenzhydryl)indole-2-carboxamide hydrochloride] |  |  |  |
| 14.3 | CCCc1ccc(NC(=O)c2c(C(c3ccc(Cl)cc3)c3ccc(Cl)cc3)c3ccccc3n2CCN(C)C)cc1 [Compound 97, N-(4-propylphenyl)-3-[bis(4-chlorophenyl)methyl]-1-(2-dimethylaminoethyl)indole-2-carboxamide hydrochloride] | 40 |  |  |
| 16.7 | CCOC(=O)c1c(C(c2ccccc2)c2ccccc2)c2ccccc2n1CCCN(C)C [Compound 64, Ethyl 1-(3-dimethylaminopropyl)-3-(diphenylmethyl)indole-2-carboxylate] | 77 |  |  |
| 14.3 | CN(C)CCn1c(C(=O)N2CCN(Cc3ccccc3)CC2)c(C(c2ccccc2)c2ccccc2)c2ccccc21 [Compound 15, 2-(4-Benzylpiperazinylcarbonyl)-1-(2-dimethylaminoethyl)-3-(diphenylmethyl)indole] | 100 |  |  |
| 11.2 | CN(C)CCn1c(C(=O)N2CCOCC2)c(C(c2ccccc2)c2ccccc2)c2ccccc21 [Compound 13, 1-(2-Dimethylaminoethyl)-3-(diphenylmethyl)-2-(morpholinocarbonyl)indole] |  |  |  |
| 14.3 | CN(C)CCn1c(C(=O)NCCCN2CCCC2=O)c(C(c2ccccc2)c2ccccc2)c2ccccc21 [Compound 21, N-[3-(2-Oxopyrrolidinyl)propyl]-1-(2-dimethylaminoethyl)-3-(diphenylmethyl)indole-2-carboxamide] | 100 | 126.95 ± 1.78 | 268.81 ± 7.38 |
| 10.5 | CCCc1ccc(NC(=O)c2c(C(c3ccccc3)c3ccc(O)cc3)c3ccccc3n2CCN(C)C)cc1 (centres unmarked) [Compound 120, N-(4-Propylphenyl)-1-(2-dimethylaminoethyl)-3-(4-hydroxybenzhydryl)indole-2-carboxamide hydrochloride] |  |  |  |
| 18.1 | O=C(NCCN1CCCCC1)c1c(C(c2ccccc2)c2ccccc2)c2ccccc2n1CCN1CCCC1 [Compound 62, N-(2-Piperidinoethyl)-3-(diphenylmethyl)-1-(2-pyrrolidinylethyl)indole-2-carboxamide 2 hydrochloride] | 53 |  |  |
|  | CN(C)CCn1c(C(=O)NC2CC2)c(C(c2ccccc2)c2ccccc2)c2ccccc21 [Compound 51, N-Cyclopropyl-1-(2-dimethylaminoethyl)-3-(diphenylmethyl)indole-2-carboxamide hydrochloride] | 70 |  |  |
| 9.1 | CN(C)CCn1c(C(=O)N2CCCCC2)c(C(c2ccccc2)c2ccccc2)c2ccccc21 [Compound 10, 1-(2-Dimethylaminoethyl)-3-(diphenylmethyl)-2-(piperidinocarbonyl)indole] |  |  |  |
| 3.7 | CN(C)CCn1c(C(=O)NCCCN2CCOCC2)c(C(c2ccccc2)c2ccccc2)c2ccccc21 [Compound 20, N-(3-Morpholinopropyl)-1-(2-dimethylaminoethyl)-3-(diphenylmethyl)indole-2-carboxamide] | 100 |  |  |
| 13 | CNC(=O)c1c(C(c2ccccc2)c2ccccc2)c2ccccc2n1CCN(C)C [Compound 56, N-Methyl-1-(2-dimethylaminoethyl)-3-(diphenylmethyl)indole-2-carboxamide hydrochloride] | 57 |  |  |
| 14.3 | CC(C)NC(=O)c1c(C(c2ccccc2)c2ccccc2)c2ccccc2n1CCN(C)C [Compound 8, N-Isopropyl-1-(2-dimethylaminoethyl)-3-(diphenylmethyl)indole-2-carboxamide] | 100 |  |  |
|  | CN(C)CCn1c(C(=O)NCCCN2CCOCC2)c(C(c2ccccc2)c2ccc(O)cc2)c2ccccc21 (centres unmarked) [Compound 121, N-(3-Morpholinopropyl)-1-(2-dimethylaminoethyl)-3-(4-hydroxybenzhydryl)indole-2-carboxamide 2 hydrochloride] | 59 |  |  |
| 17.5 | CN(C)CCn1c(C(=O)NC2CCCCCC2)c(C(c2ccccc2)c2ccccc2)c2ccccc21 [Compound 11, N-Cycloheptyl-1-(2-dimethylaminoethyl)-3-(diphenylmethyl)indole-2-carboxamide] | 100 |  |  |
|  | O=C(c1c(C(c2ccccc2)c2ccccc2)c2ccccc2n1CCN1CCCC1)N1CCN(c2ccccc2Cl)CC1 [Compound 4, 2-[4-(2-Chlorophenyl)piperazinylcarbonyl]-3-(diphenylmethyl)-1-(2-pyrrolidinylethyl)indole] | 43 |  |  |
|  | CN(C)CCn1c(C(=O)O)c(C(c2ccccc2)c2ccccc2)c2ccccc21 [Compound 6, 1-(2-Dimethylaminoethyl)-3-(diphenylmethyl)indole-2-carboxylic acid] | 100 |  |  |
| 13.7 | CN(C)CCn1c(C(=O)NCCCn2ccnc2)c(C(c2ccccc2)c2ccccc2)c2ccccc21 [Compound 22, N-[3-(1-Imidazolyl)propyl]-1-(2-dimethylaminoethyl)-3-(diphenylmethyl)indole-2-carboxamide] | 87 |  |  |
